Assay results reported in US20050238580A1 (priority 2002, published 2005).

Key:
intestinal lactase [1] = molecular target: T1, intestinal lactase (Rattus norvegicus, UniProt Q02401); experiment: Xylose in blood plasma after oral 4-galactosyl-xylose versus intestinal lactase activity in unweaned rats; format: in vivo
T1 construct: hydrolysis of the 4-galactosyl-xylose administered is detected by the action of intestinal lactase; from tissue; host or cells: small-intestinal mucous membrane of living unweaned rats (in vivo); activity also measured post mortem in mucosa homogenate
T1 sequence (Q02401 868-1928): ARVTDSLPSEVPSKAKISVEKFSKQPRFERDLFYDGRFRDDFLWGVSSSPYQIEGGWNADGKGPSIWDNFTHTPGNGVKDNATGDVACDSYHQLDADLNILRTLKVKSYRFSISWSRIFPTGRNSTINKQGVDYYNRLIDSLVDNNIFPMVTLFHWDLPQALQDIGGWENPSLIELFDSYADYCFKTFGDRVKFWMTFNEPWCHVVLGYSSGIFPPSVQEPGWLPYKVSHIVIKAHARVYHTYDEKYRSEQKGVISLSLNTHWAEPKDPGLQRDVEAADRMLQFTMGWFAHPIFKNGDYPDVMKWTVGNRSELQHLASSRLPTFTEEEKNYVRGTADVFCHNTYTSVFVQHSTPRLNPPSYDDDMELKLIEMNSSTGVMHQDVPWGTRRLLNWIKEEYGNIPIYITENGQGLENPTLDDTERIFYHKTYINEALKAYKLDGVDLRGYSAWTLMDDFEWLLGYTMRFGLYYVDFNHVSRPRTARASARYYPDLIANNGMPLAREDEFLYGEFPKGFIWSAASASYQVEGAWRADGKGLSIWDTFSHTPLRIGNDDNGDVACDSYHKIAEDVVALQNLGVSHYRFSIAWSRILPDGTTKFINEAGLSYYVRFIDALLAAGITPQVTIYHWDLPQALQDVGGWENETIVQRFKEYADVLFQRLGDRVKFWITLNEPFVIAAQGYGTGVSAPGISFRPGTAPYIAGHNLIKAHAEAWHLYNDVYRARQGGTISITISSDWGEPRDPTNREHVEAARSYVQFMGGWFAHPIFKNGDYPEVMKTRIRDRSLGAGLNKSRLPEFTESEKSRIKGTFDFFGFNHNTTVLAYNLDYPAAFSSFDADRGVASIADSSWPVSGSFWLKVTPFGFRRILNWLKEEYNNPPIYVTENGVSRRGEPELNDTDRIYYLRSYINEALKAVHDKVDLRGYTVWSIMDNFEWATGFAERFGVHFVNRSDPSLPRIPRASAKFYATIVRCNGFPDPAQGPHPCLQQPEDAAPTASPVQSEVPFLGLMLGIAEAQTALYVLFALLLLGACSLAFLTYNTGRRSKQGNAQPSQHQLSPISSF
From the text: Correlation between the excretion of xylose in urine and the presence of xylose in blood after oral administration of 4-galactosyl-xylose with intestinal lactase activity. This has been shown in unweaned rats by comparing during the growth of these animals the amount of xylose in plasma analyzed after orally administering to them 4-galactosyl-xylose with specific lactase activity evaluated postmortem in the intestinal mucous membrane. For this purpose, a group comprised of 60 12-day old unweaned rats belonging to two litters fasted for 6 hours by being separated from the mother. After this period of time passed, basal blood was extracted from each animal by means of a heart puncture and each rat was immediately administered 8 mg of 4-galactosyl-xylose diluted in 0.3 ml of distilled water by using an intraesophageal probe. 3 hours after the disaccharide was administered another blood sample was extracted. The blood plasma or supernatant fraction was obtained by centrifuging this sample and the xylose therein was titrated by calorimetric analysis with fluoroglucinol and using the plasma of the basal blood as the target. Immediately after the blood was extracted, four of the animals were sacrificed and the lactase activity in the intestinal mucous membrane was directly evaluated in the same manner as the one described in Example 1. […]

intestinal lactase [2] = molecular target: T2, intestinal lactase (Homo sapiens, UniProt P09848); experiment: Xylose in urine of human volunteers after oral 4-galactosyl-xylose, evaluated by gas chromatography; format: in vivo; settings: 0.25 g oral
T2 construct: from tissue; host or cells: small-intestinal mucous membrane of living adult human volunteers (in vivo)
From the text: Excretion of xylose in urine after administration of 0.25 g of 4-galactose-xylose to subjects with lactose tolerance, and its reduction in hypolactasic individuals with lactose intolerance is likewise observed by the evaluation technique of xylose different from the colorimetric reaction with fluoroglucinol. This has been shown by administering 0.25 g of 4-galactosyl-xylose to a volunteer with lactose tolerance [individual 1 (also studied in Example 3), Example 15] on one hand, and on the other hand, to a volunteer with lactose intolerance having an intense intestinal lactase deficiency [individual 12 (also studied in Example 12), Example 16], and evaluating xylose by gas chromatography in the total urine collected 3 hours after the intake of the disaccharide with a chromatograph equipped with a flame ionization detector and a 12 m long glass spiral column with an inside diameter of 0.2 mm and a thickness of 0.3 μm. The presence of xylose in urine was detected in its trimethylsilyl derivative form. For this purpose the urine sample was lyophilized and dissolved in 20 μl of pyridine containing 1 mM of benzyl-β-D-xylopyranoside as an internal reference. Then another 20 μl of N-trimethylsilyl imidazole were added as a sililating agent. The mixture was treated with ultrasound for one minute and heated at 60° C. for 30 minutes. Then 1-2 μl of the sample was injected into the gas chromatograph. The temperature of the injector and the detector used was 250° C. and the temperature gradient in the column was the following: 2 minutes at 180° C. and a 5° C. increase per minute until 250° C. was reached. This temperature was maintained for 15 minutes. The concentration of xylose in each sample was calculated from the areas of the peaks corresponding to the chromatograms. The results of these experiments are compiled in FIG. 7, wherein the chromatograms corresponding to the samples of basal urine and of urine taken during 3 hours from an individual with lactose tolerance and an individual with lactose intolerance are shown. […]

T2 sequence (P09848 869-1927): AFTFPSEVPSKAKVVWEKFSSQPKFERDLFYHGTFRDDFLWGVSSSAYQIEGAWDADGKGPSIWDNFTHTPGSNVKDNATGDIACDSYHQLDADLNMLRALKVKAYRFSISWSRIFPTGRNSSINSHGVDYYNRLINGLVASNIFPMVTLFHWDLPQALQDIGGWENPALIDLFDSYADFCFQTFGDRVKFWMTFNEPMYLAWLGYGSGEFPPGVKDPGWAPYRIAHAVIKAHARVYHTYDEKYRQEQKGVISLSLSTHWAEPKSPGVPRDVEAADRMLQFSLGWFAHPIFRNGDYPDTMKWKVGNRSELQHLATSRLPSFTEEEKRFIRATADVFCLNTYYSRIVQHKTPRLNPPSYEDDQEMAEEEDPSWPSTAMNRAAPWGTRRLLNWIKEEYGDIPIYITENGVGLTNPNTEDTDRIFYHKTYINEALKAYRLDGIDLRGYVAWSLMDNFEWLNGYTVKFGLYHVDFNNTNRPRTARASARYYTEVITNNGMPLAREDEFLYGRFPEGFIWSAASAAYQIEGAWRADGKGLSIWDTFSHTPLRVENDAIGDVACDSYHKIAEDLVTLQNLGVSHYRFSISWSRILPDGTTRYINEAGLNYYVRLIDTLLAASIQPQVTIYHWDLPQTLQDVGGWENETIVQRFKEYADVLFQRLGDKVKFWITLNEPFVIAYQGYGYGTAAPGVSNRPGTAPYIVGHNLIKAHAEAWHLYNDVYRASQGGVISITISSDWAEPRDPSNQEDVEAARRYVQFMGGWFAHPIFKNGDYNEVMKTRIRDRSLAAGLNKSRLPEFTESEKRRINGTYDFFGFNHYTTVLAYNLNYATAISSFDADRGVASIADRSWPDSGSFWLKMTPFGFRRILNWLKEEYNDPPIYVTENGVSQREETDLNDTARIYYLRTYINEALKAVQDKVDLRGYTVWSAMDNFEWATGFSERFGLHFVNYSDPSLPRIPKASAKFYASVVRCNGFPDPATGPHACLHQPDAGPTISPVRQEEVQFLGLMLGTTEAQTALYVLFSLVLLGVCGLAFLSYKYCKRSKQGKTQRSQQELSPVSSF

OCC1O[C@@H](O[C@@H]2COC(O)C(O)[C@H]2O)C(O)[C@@H](O)[C@H]1O (some centres unmarked)
linear correlation coefficient (r) between xylose in blood plasma and intestinal lactase activity (intestinal lactase [1]; unweaned rats aged 12 to 35 days, 8 mg oral, plasma 3 hours after administration): 0.98 | dose dependence of amount of xylose in plasma (intestinal lactase [1]; unweaned rats, oral doses between 4 and 16 mg in 0.3 ml of water): increases with the increase of the amount of 4-galactosyl-xylose | reduction of xylose in urine, individual 12 versus individual 1 (intestinal lactase [2]; urine of 3 hours): 92% | total amount of xylose in urine of 3 hours (intestinal lactase [2]; hypolactasic individual 12 with lactose intolerance): 2.1 mg | total xylose in urine of 3 hours (intestinal lactase [2]; individual 1 with lactose tolerance): 25.2 mg
